# Measurements published in article PMC7251123, “CX-5461 activates the DNA damage response and demonstrates therapeutic efficacy in high-grade serous ovarian cancer” (Nature Communications, 2020).
# Tests used:
# [1] = tested on: G-quadruplex DNA (GQ) structures; experiment: Immunofluorescence of GQ DNA (1H6 antibody); assay type: cell-based, human; conditions: OVCAR8, OVCAR4 and OVCAR8 RAD51C KO cells; 1 h, 3 h and 24 h post-treatment; 1 μM
# Protocol: To examine the mechanism of activation of ATM/ATR signalling, we investigated the effects of CX-5461 treatment on the formation of GQ structures in OVCAR8, OVCAR8 RAD51C KO and OVCAR4 cells (Fig. 4a, b and Supplementary Fig. 4A–D).
# Fig. 4 CX-5461 induces R-loops stabilization in HR-proficient OVCAR8 cells. a Co-immunofluorescence (Co-IF) of GQ DNA and UBF as a nucleolar marker in OVCAR8 cells and OVCAR8 RAD51C KO cells treated with either vehicle, 1 μM CX-5461 or 10 μM TMPyP4 for 3 h. Representative images of three biologically independent experiments. b Quantitation of GQ DNA immunofluorescence. Signal intensities were analyzed using CellProfiler. […] Representative images of two biologically independent experiments. d Quantitation of R-loops signal intensity was performed using CellProfiler. n = 230 cells per treatment condition were examined over two independent experiments. […] RNA was extracted and 47S rRNA precursor levels were determined using primers specific to the 5’ETS of pre-rRNA. Expression levels were normalized to NONO mRNA and expressed as a fold change relative to vehicle (n = 3 biologically independent experiments), error bars represent mean ± SEM, statistical analysis was performed using a two-sided one-way ANOVA, Tukey’s multiple comparisons test (adjusted p-values are shown). […]
# [2] = tested on: panel of 32 established human OVCA cell lines; experiment: Cell proliferation dose response (IncuCyte ZOOM), 48 h, whole panel; assay type: cell-based; conditions: 32 OVCA cell lines, threshold for sensitive, read-out: geometric median of GI50
# Protocol: The in vitro effects of CX-5461 on human OVCA cells were evaluated using a panel of 32 established human OVCA cell lines. These cell lines were selected to be representative of a range of histologic OVCA subtypes (Supplementary Table 1). Increasing concentrations (1 nM–10 μM) of CX-5461 were used to assess the concentration of drug that induced a 50% reduction in cell proliferation (GI50) at 48 hours (h). […] There was no statistically significant correlation between TP53 mutation status and sensitivity to CX-5461 (Supplementary Table 1, Fig. 1b). The efficacy of growth inhibition by CX-5461 correlated with a higher rate of basal rDNA transcription in the sensitive compared with the resistant OVCA cell lines (Fig. 1c).
# Fig. 1 Sensitivity of ovarian cancer (OVCA) cell lines to CX-5461. a CX-5461 doses that induce 50% growth inhibition (GI50) at 48 hours. Error bars represent mean ± standard deviation (SD). […]
# For assessing OVCA cells’ sensitivity to CX-5461, dose response curves were generated for each cell line by plating cells in 96-well plates, culturing them for 24 hours and then treating them with either vehicle or increasing concentrations of drug (0, 0.001, 0.003, 0.01, 0.03, 0.1, 0.3, 1, 3, 10 and 30 μM CX-5461) for 48 h. Cell number was assessed using the IncuCyte ZOOM imaging system (Essen BioScience). […] During this time the degree of confluency was measured every 24 h. […]
smiles,measurement,setting,value
Cc1cnc(CNC(=O)c2c(=O)c3ccc(N4CCCN(C)CC4)nc3n3c2sc2ccccc23)cn1 [CX-5461],GQ stabilization,[1],did not induce GQ stabilization
same,GI50,[2],363 nM
